Test [1] concerns the target T1, system xc− (Homo sapiens, UniProt Q9UPY5).
T1 sequence (Q9UPY5 1-501): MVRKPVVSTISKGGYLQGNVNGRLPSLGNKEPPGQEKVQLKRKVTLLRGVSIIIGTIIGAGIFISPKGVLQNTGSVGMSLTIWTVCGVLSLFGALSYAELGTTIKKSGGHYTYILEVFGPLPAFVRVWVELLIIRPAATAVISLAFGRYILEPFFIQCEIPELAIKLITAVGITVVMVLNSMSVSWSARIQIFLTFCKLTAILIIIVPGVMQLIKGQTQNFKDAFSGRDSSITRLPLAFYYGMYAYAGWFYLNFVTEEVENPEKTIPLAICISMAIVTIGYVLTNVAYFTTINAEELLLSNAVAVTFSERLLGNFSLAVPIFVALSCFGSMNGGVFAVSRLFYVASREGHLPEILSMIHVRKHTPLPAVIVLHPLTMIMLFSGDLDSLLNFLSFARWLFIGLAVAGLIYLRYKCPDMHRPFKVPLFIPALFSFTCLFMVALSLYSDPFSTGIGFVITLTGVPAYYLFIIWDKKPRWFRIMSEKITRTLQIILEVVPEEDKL
T1 sequence (P08195 1-529 partner): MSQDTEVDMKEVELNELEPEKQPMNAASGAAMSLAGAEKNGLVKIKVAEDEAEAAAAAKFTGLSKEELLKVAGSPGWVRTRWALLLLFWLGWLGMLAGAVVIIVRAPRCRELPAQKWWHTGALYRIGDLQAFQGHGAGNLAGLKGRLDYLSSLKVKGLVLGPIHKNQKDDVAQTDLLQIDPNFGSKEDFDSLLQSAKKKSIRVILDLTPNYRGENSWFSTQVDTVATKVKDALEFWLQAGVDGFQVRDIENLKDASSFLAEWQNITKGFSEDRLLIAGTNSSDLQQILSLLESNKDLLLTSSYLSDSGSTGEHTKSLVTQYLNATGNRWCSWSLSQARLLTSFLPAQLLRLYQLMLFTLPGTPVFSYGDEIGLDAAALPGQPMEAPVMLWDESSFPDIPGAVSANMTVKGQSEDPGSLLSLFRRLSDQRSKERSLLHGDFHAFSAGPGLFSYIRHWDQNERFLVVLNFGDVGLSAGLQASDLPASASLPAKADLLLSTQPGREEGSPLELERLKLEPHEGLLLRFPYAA
As to conditions: Dixon et al., eLife 2014; cited from earlier work.

In test [2] the test system is WT cortical cells. The experiment in a line: Lactate dehydrogenase (LDH) level in WT cortical cells after OGD/OGDR. The format is cell-based, mouse. Conditions: OGDR, 24 h after reperfusion, 10 μM (SAS 500 μM). As for the experimental part: (§1) Primary cortical cells were prepared from cerebral cortices of wild-type C57BL/6J or homozygote xCT^−/− mouse embryos in embryonic day 17 as previously described with modification (Goldberg M P, Choi D W. Combined oxygen and glucose deprivation in cortical cell culture: calcium-dependent and calcium-independent mechanisms of neuronal injury. The Journal of neuroscience: the official journal of the Society for Neuroscience, 1993; 13(8):3510-24, which is incorporated here by reference).
The LDH assay was carried out at 24 hours after reperfusion. *P<0.01 compared to drugs-untreated cells (Un), one-way ANOVA. Error bars denote the standard deviation among triplicate experiments.

For test [3], the system named is neurons. Nature of the test: Annexin V flow cytometric apoptosis assay after OGDR, neurons. Type of test: cell-based, mouse. As to conditions: WT cortical cells, 24 h after reperfusion, 10 μM (SAS 500 μM). Here is the method: (§2) Annexin V staining was performed to determine cell apoptosis using the Annexin V-FITC Apoptosis Detection Kit (Sigma-Aldrich) for 10 min at room temperature according to the manufacturers instructions, and then flow cytometric analysis was performed.
(§3) The three-color staining flow cytometric assay using allophycocyanin-microtubule-associated protein 2 (MAP2) for neuron staining, phycoerythrin (PE)-GFAP for astrocyte staining and FITC-annexin V for apoptotic cell staining was performed to count the numbers of neurons, astrocytes, and apoptotic cells. FIGS. 21A and […] show the results of apoptosis in wild type (WT) and xCT^−/− cortical cells treated with OGDR at 24 h after reperfusion. *P<0.01 compared to WT without OGDR, Student's t-test. ^#P<0.01 compared to WT with OGDR, Student's t-test. From FIGS. 21A and 21B it was observed that that smaller numbers of apoptotic cells were present in xCT^−/− neurons and astrocytes after OGDR treatment.
(Flow cytometry measures light scatter and fluorescence of single cells or particles in a stream.)

The test system of test [4] is NMDAR. As to conditions: for hyperfunction of NMDAR (binding radioactivity of 18F-FSAG): WT cortical cells, OGDR, 24 h after reperfusion, 10 μM (SAS 500 μM).
Test [5] has as its target T2, system xc− (Mus musculus, UniProt Q9WTR6).
T2 construct: endogenous in cells; host or cells: primary cortical cells from E17 wild-type C57BL/6J mouse embryos, exposed to OGDR
T2 sequence (Q9WTR6 1-502): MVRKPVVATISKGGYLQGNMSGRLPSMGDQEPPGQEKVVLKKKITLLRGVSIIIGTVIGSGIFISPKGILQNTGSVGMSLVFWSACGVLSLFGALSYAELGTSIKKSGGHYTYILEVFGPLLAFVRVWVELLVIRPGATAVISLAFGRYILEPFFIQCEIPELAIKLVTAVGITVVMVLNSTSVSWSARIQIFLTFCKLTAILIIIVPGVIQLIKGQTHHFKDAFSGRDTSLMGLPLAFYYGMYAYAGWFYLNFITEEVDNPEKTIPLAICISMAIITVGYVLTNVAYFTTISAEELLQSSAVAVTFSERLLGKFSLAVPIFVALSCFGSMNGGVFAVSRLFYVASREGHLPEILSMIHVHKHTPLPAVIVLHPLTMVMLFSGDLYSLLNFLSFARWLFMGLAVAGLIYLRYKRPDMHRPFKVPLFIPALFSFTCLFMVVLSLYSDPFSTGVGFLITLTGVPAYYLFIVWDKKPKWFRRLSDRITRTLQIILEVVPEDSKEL
T2 sequence (P10852 1-526 partner): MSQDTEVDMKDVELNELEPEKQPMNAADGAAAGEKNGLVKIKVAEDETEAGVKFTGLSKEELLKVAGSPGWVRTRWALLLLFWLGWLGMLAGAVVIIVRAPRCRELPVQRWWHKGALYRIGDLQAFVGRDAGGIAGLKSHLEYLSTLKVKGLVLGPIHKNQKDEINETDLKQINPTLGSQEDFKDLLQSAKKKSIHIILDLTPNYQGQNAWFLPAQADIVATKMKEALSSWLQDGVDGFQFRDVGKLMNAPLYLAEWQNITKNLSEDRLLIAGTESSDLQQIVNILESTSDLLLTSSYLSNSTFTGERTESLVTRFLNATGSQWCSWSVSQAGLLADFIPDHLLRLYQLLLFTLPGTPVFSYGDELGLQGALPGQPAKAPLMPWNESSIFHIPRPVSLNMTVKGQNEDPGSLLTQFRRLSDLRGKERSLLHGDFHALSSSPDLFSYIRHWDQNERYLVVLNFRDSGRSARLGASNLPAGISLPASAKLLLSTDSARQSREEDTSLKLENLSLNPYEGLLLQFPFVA
Nature of the test: Extracellular glutamate content in WT cortical cells exposed to OGDR. As to conditions: 24 h after reperfusion, 10 μM (SAS 500 μM). The format is cell-based. Here is the method:
as §1

Test [6] deals with astrocytes. The experiment in a line: Annexin V flow cytometric apoptosis assay after OGDR, astrocytes. The format is cell-based, mouse. Conditions: WT cortical cells, 24 h after reperfusion, 10 μM (SAS 500 μM). Here is the method: as §2, §3
Test [7] deals with T3, NMDAR (Mus musculus, UniProt P35438).
T3 construct: from tissue; host or cells: cerebral hemispheres of WT (C57BL/6J) and xCT-/- mice after CIR, in vivo/ex vivo
The format is in vivo. Conditions: WT and xCT−/− mice with CIR, 12 h after reperfusion, compared to vehicle.
Method: Animals received 29.6 MBq/kg of ^18F-FSAG in 100 μl of PBS via lateral tail vein injection, and then were euthanized by CO2/O2 asphyxiation at 30 min after injection. After sacrifice, selected tissues of interest were then removed and weighed, and the radioactivity was measured using a γ-counter. The percentage injected dose per gram (% ID/g) was then calculated.
To determine in vivo activation of NMDAR, mice were injected with ^18F-FSAG at 12 h after reperfusion for ex vivo biodistribution studies and positron emission tomography (PET) imaging studies.

Test [8] has as its system SLC7A11 (xCT) mRNA. The experiment in a line: SLC7A11 mRNA level (Q-PCR) in primary cortical cells exposed to OGDR. Type of test: cell-based, mouse. Conditions: pretreatment with YC-1 5 μM.
Test [9] has as its system mouse xCT promoter. The experiment in a line: Mouse xCT promoter luciferase reporter assay in neurons and astrocytes. As to conditions: 24 h incubation, DFO 100 μM, CoCl2 50 μM. The format is cell-based. The text has this:
The multiple cloning sites (MCS) of pTA-Luc vector (Clontech) was inserted with the cDNA fragment bearing −2000 to +1 bp mouse or human xCT promoter to drive the expression of firefly luciferase gene as pTA-mxCTp-Luc or pTA-hxCTp-Luc. The mutant of hypoxia response element on mouse or human xCT promoter was generated in the pTA-mxCTp-Luc or pTA-hxCTp-Luc as template by Quick Change Site-directed Mutagenesis Kit (Stratagene).
Cells were cotransfected with xCT promoter-driven reporter constructs with or without HRE mutation and Renilla reporter plasmids. At 24 h after transfection, the luciferase activity was examined by a dual luciferase reporter assay system (Promega) according to the manufacturers instructions, and firefly luciferase activity was normalized to the control renilla activity included in the kit. Luciferase activities are expressed as fold-increase over the luciferase activities in un-stimulated conditions.
To test whether the xCT promoter would respond to HIF activation, the mouse xCT 2000-bp promoter was isolated and fused to firefly luciferase coding sequences for use in transient transfection assays with neurons and astrocytes. Normoxic neurons and astrocytes were treated with OGDR or incubated with desferrioxamine (DFO; 100 μM) or cobalt chloride (CoCl2; 50 μM) for 24 h. The DFO and CoCl2 mimics hypoxia by inducing transcription from HIF-1-dependent genes.
(In general: Reporter assays use an easily measured gene product as a stand-in for the process of interest.)

Test [10] has as its system xCT. The experiment in a line: xCT mRNA and protein levels in homogenised ischemic brain tissue of rats with CIR. The format is in vivo, rat. As to conditions: pretreatment 150 mg/kg, 12 h after reperfusion. As for the experimental part: Eight to ten-week-old male adult male Sprague-Dawley rats, C57BL/6J mice and xCT^−/− mice were anesthetized with 1.5% isoflurane in oxygen, allowed breathing spontaneously, and body temperature was maintained at 37° C. with a heat lamp during surgery for right middle cerebral artery ligation and bilateral common carotid artery clamping as previously described (Chen S T, Hsu C Y, Hogan E L, Maricq H, Balentine J D. A model of focal ischemic stroke in the rat: reproducible extensive cortical infarction. Stroke; a journal of cerebral circulation. 1986; 17(4):738-43, which is incorporated here by reference). Animals were subjected to transient cerebral ischemia for 90 min in rats and 2 h in mice.
Q-PCR analysis was performed as described previously in Hsieh (Hsieh C H, Kuo J W, Lee Y J, Chang C W, Gelovani Liu R S. Construction of mutant TKGFP for real-time imaging of temporal dynamics of HIF-1 signal transduction activity mediated by hypoxia and reoxygenation in tumors in living mice. J Nucl Med. 2009; 50(12):2049-57, which is incorporated here by reference). […] The cDNA was then used for real time PCR quantification of mRNAs using the gene specific forward and reverse primers. […]
To test this hypothesis, the mRNA and protein levels of xCT in ischemic brains with or without 2-methoxyestradiol (2ME2), an inhibitor of HIF-1, at 12 h after CIR were first determined. […]

Molecules are shown by their SMILES.

As to `Cc1ccc(NC(=O)c2ccc(CN3CCN(C)CC3)cc2)cc1Nc1nccc(-c2cccnc2)n1` [imatinib], the “system xc− inhibition activity” value in test [1] was “lacking system xc^− inhibition activity”.
With `CNC(=O)c1cc(Oc2ccc(NC(=O)Nc3ccc(Cl)c(C(F)(F)F)c3)c(F)c2)ccn1` [regorafenib], the LDH levels result in [2] is “inhibited”. The apoptosis in neurons result in test [3] is “inhibited”. In addition, in test [4], the “hyperfunction of NMDAR (binding radioactivity of 18F-FSAG)” value is on record as “inhibited”. In addition, in test [5], the “OGDR-induced glutamate release (extracellular glutamate content)” value was “inhibited”. Further, the apoptosis in astrocytes entry in test [6] is given as “inhibited”.
Regarding `C[C@]12N[C@H](Cc3ccccc31)c1ccccc12` [MK801], the “binding of 18F-FSAG” value in test [4] (cortical cells, pretreatment 10 μM) is “blocked”. Also, in [7], the “18F-FSAG accumulation in ipsilateral and contralateral hemispheres” value is recorded as “significant reduction”.
As to `CCOc1ccccc1-n1c(C(C)N2CCN(C(=O)COc3ccc(Cl)cc3)CC2)nc2ccccc2c1=O` (stereo not drawn) [erastin], the LDH levels result in [2] is reported as “inhibited”. For the same compound, the apoptosis in neurons result in test [3] is “inhibited”. Further, the “hyperfunction of NMDAR (binding radioactivity of 18F-FSAG)” value in test [4] is “inhibited”. Also, in test [5], the “OGDR-induced glutamate release (extracellular glutamate content)” value was “inhibited”. For the same compound, the apoptosis in astrocytes entry in test [6] is recorded as “inhibited”.
For `OCc1ccc(-c2nn(Cc3ccccc3)c3ccccc23)o1` [YC-1], the “OGDR-increased SLC7A11 mRNA expression” value in test [8] is recorded as “inhibited”.
As to `CC(=O)N(O)CCCCCNC(=O)CCC(=O)N(O)CCCCCNC(=O)CCC(=O)N(O)CCCCCN` [DFO, desferrioxamine], the “transcriptional activation of xCT (reporter activity of mouse xCT promoter)” value in [9] is listed as “increased”.
Regarding `COc1cc2c(cc1O)CC[C@@H]1[C@@H]2CC[C@]2(C)[C@@H](O)CC[C@@H]12` [2ME2, 2-methoxyestradiol], in test [10], the “xCT mRNA expression level” value is given as “significantly inhibited” and the “xCT protein expression level” value is given as “significantly inhibited”.
As for `[Cl][Co][Cl]` [CoCl2, cobalt chloride], the “transcriptional activation of xCT (reporter activity of mouse xCT promoter)” value in test [9] is listed as “increased”.

(Values after US20160199393A1, “METHODS OF TREATING BRAIN ISCHEMIA OR HYPOXIA” (China Medical University, priority 2015, published 2016).)
